Assay results: article PMC5433425 (PeerJ, 2017)
Several values for one entry are separate records, joined by “and”; a condition that tells them apart may be missing. Identical values can stand only once. Peptide text beside a SMILES is read from it. * marks the point of attachment. βNA = c1ccc2cc(N*)ccc2c1

Legend:
[1] = tested on: E. coli AG100; experiment: EtBr efflux by real-time fluorometry; conditions: 80 µM
Method: Control tubes with only cells and cells with and without 0.4% glucose were included. The fluorescence was measured in a Rotor-Gene 3000 and the data was acquired every 30 s for 30 min at 37 °C. The efflux activity was quantified by comparing the fluorescence data obtained under conditions that promote efflux (presence of glucose and absence of efflux inhibitor) with the data from the control in which the bacteria are under conditions of no efflux (presence of an inhibitor and no energy source).

[2] = tested on: E. coli AG100; experiment: Membrane permeability assay (Live/Dead BacLight)
[3] = 80 uM, raw well reading, listed as PAN

NC(N)=NCCC[C@H](NC(=O)[C@@H](N)Cc1ccccc1)C(=O)Nc1ccc2ccccc2c1 [PAβN] (H-Phe-Arg-βNA)
EtBr fluorescence (Channel Cycling A.530/585hp) ([1]; cycle 17, without glucose): 1.242 | EtBr fluorescence (Channel Cycling A.530/585hp) ([1]; cycle 18, + glucose): 1.167 | EtBr fluorescence (Channel Cycling A.530/585hp) ([1]; cycle 18, without glucose): 1.283 | EtBr fluorescence (Channel Cycling A.530/585hp) ([1]; cycle 19, + glucose): 1.179 | EtBr fluorescence (Channel Cycling A.530/585hp) ([1]; cycle 19, without glucose): 1.241 | EtBr fluorescence (Channel Cycling A.530/585hp) ([1]; cycle 20, + glucose): 1.201 | EtBr fluorescence (Channel Cycling A.530/585hp) ([1]; cycle 20, without glucose): 1.199 | EtBr fluorescence (Channel Cycling A.530/585hp) ([1]; cycle 21, + glucose): 1.201 | EtBr fluorescence (Channel Cycling A.530/585hp) ([1]; cycle 21, without glucose): 1.185 | EtBr fluorescence (Channel Cycling A.530/585hp) ([1]; cycle 22, + glucose): 1.145 | EtBr fluorescence (Channel Cycling A.530/585hp) ([1]; cycle 22, without glucose): 1.19 | EtBr fluorescence (Channel Cycling A.530/585hp) ([1]; cycle 23, + glucose): 1.181 | EtBr fluorescence (Channel Cycling A.530/585hp) ([1]; cycle 23, without glucose): 1.1696 | EtBr fluorescence (Channel Cycling A.530/585hp) ([1]; cycle 24, + glucose): 1.1726 | EtBr fluorescence (Channel Cycling A.530/585hp) ([1]; cycle 24, without glucose): 1.092 | EtBr fluorescence (Channel Cycling A.530/585hp) ([1]; cycle 25, + glucose): 1.158 | EtBr fluorescence (Channel Cycling A.530/585hp) ([1]; cycle 25, without glucose): 1.1723 | EtBr fluorescence (Channel Cycling A.530/585hp) ([1]; cycle 26, + glucose): 1.17 | EtBr fluorescence (Channel Cycling A.530/585hp) ([1]; cycle 26, without glucose): 1.164 | EtBr fluorescence (Channel Cycling A.530/585hp) ([1]; cycle 27, + glucose): 1.169 | EtBr fluorescence (Channel Cycling A.530/585hp) ([1]; cycle 27, without glucose): 1.126 | EtBr fluorescence (Channel Cycling A.530/585hp) ([1]; cycle 28, + glucose): 1.177 | EtBr fluorescence (Channel Cycling A.530/585hp) ([1]; cycle 28, without glucose): 1.147 | EtBr fluorescence (Channel Cycling A.530/585hp) ([1]; cycle 29, + glucose): 1.1781 | EtBr fluorescence (Channel Cycling A.530/585hp) ([1]; cycle 29, without glucose): 1.123 | EtBr fluorescence (Channel Cycling A.530/585hp) ([1]; cycle 30, + glucose): 1.125 | EtBr fluorescence (Channel Cycling A.530/585hp) ([1]; cycle 30, without glucose): 1.105 | EtBr fluorescence (Channel Cycling A.530/585hp) ([1]; cycle 31, + glucose): 1.166 | EtBr fluorescence (Channel Cycling A.530/585hp) ([1]; cycle 31, without glucose): 1.145 | EtBr fluorescence (Channel Cycling A.530/585hp) ([1]; cycle 32, + glucose): 1.148 | EtBr fluorescence (Channel Cycling A.530/585hp) ([1]; cycle 32, without glucose): 1.083 | EtBr fluorescence (Channel Cycling A.530/585hp) ([1]; cycle 33, + glucose): 1.1593 | EtBr fluorescence (Channel Cycling A.530/585hp) ([1]; cycle 33, without glucose): 1.053 | EtBr fluorescence (Channel Cycling A.530/585hp) ([1]; cycle 34, + glucose): 1.173 | EtBr fluorescence (Channel Cycling A.530/585hp) ([1]; cycle 34, without glucose): 1.055 | EtBr fluorescence (Channel Cycling A.530/585hp) ([1]; cycle 35, + glucose): 1.1603 | EtBr fluorescence (Channel Cycling A.530/585hp) ([1]; cycle 35, without glucose): 1.086 | EtBr fluorescence (Channel Cycling A.530/585hp) ([1]; cycle 36, + glucose): 1.157 | EtBr fluorescence (Channel Cycling A.530/585hp) ([1]; cycle 36, without glucose): 1.095 | EtBr fluorescence (Channel Cycling A.530/585hp) ([1]; cycle 37, + glucose): 1.1393 | EtBr fluorescence (Channel Cycling A.530/585hp) ([1]; cycle 37, without glucose): 1.081 | EtBr fluorescence (Channel Cycling A.530/585hp) ([1]; cycle 38, + glucose): 1.174 | EtBr fluorescence (Channel Cycling A.530/585hp) ([1]; cycle 38, without glucose): 1.066 | EtBr fluorescence (Channel Cycling A.530/585hp) ([1]; cycle 39, + glucose): 1.096 | EtBr fluorescence (Channel Cycling A.530/585hp) ([1]; cycle 39, without glucose): 1.058 | EtBr fluorescence (Channel Cycling A.530/585hp) ([1]; cycle 40, + glucose): 1.115 | EtBr fluorescence (Channel Cycling A.530/585hp) ([1]; cycle 40, without glucose): 1.043 | EtBr fluorescence (Channel Cycling A.530/585hp) ([1]; cycle 41, + glucose): 1.134 | EtBr fluorescence (Channel Cycling A.530/585hp) ([1]; cycle 41, without glucose): 1.067 | EtBr fluorescence (Channel Cycling A.530/585hp) ([1]; cycle 42, + glucose): 1.162 | EtBr fluorescence (Channel Cycling A.530/585hp) ([1]; cycle 42, without glucose): 1.058 | EtBr fluorescence (Channel Cycling A.530/585hp) ([1]; cycle 43, + glucose): 1.125 | EtBr fluorescence (Channel Cycling A.530/585hp) ([1]; cycle 43, without glucose): 1.031 | EtBr fluorescence (Channel Cycling A.530/585hp) ([1]; cycle 44, + glucose): 1.108 | EtBr fluorescence (Channel Cycling A.530/585hp) ([1]; cycle 44, without glucose): 1.002 | EtBr fluorescence (Channel Cycling A.530/585hp) ([1]; cycle 45, without glucose): 0.9943 | EtBr fluorescence (Channel Cycling A.530/585hp) ([1]; cycle 46, without glucose): 1.025 | EtBr fluorescence (Channel Cycling A.530/585hp) ([1]; cycle 47, without glucose): 1.03 | EtBr fluorescence (Channel Cycling A.530/585hp) ([1]; cycle 48, without glucose): 1.056 | EtBr fluorescence (Channel Cycling A.530/585hp) ([1]; cycle 49, without glucose): 1.07 | EtBr fluorescence (Channel Cycling A.530/585hp) ([1]; cycle 50, without glucose): 1.062 | EtBr fluorescence (Channel Cycling A.530/585hp) ([1]; cycle 51, without glucose): 1.026 | EtBr fluorescence (Channel Cycling A.530/585hp) ([1]; cycle 52, without glucose): 1.029 | EtBr fluorescence (Channel Cycling A.530/585hp) ([1]; cycle 53, without glucose): 1.04 | EtBr fluorescence (Channel Cycling A.530/585hp) ([1]; cycle 54, without glucose): 1.019 | EtBr fluorescence (Channel Cycling A.530/585hp) ([1]; cycle 55, without glucose): 0.9589 | EtBr fluorescence (Channel Cycling A.530/585hp) ([1]; cycle 56, without glucose): 0.9927 | EtBr fluorescence (Channel Cycling A.530/585hp) ([1]; cycle 57, without glucose): 1.017 | EtBr fluorescence (Channel Cycling A.530/585hp) ([1]; cycle 58, without glucose): 0.9905 | EtBr fluorescence (Channel Cycling A.530/585hp) ([1]; cycle 59, without glucose): 1.041 | EtBr fluorescence (Channel Cycling A.530/585hp) ([1]; cycle 60, without glucose): 1.02 | EtBr fluorescence (Channel Cycling A.530/585hp) ([1]; cycle 61, without glucose): 1.0374 | BacLight Live/Dead fluorescence 485/20,528/20 [2, 3]: 168 and 192 | BacLight Live/Dead fluorescence 485/20,590/35 [2, 3]: 43 and 57 | membrane permeability increase / membrane permeation ([2]; AG100, 80 µM): 14%
